From ChEMBL document CHEMBL2062491, “Absolute structures of monoterpenoids with a δ-lactone-containing skeleton from Ligularia hodgsonii” (J Nat Prod, 2012) come the findings set out here.

Holding throughout (assay type): functional, cell-based
The subject of assay [1] is HL-60. The assay is described as follows: Cytotoxicity against human HL60 cells after 48 hrs by SRB assay. Background: Sulforhodamine B stains cellular protein and so reports cell mass.
Assay [2] has as its system SMMC-7721. The assay is described as follows: Cytotoxicity against human SMMC7721 cells after 48 hrs by SRB assay.
Assay [3] relates to HeLa. The experiment in a line: Cytotoxicity against human HeLa cells after 48 hrs by SRB assay.

In general, IC50 refers to the concentration needed to halve the response being measured.

As to `COC(=O)[C@]1([C@H](C)Cl)C[C@@H](C)[C@@](C)(OC(C)=O)C(=O)O1` [LIGUHODGCINS A], the values for the half-inhibitory concentration (IC50) in assay [1] (hl-60), in assay [2] (smmc-7721) and in assay [3] (hela) were 141 µM, 156 µM and 171 µM, respectively.
For `COC(=O)[C@]1(C)OC(=O)[C@]2(C[C@H]1C)O[C@@H]2C` [LIGUHODGCINS B], in that order: 151 µM, 162 µM and 168 µM.
On to `CO[C@@]12[C@H](COC(N)=O)C3=C(C(=O)C(C)=C(N)C3=O)N1C[C@@H]1N[C@@H]12` [MITOMYCIN], for which the IC50 in assay [1] (Homo sapiens, HL-60, 48 h, read-out: IC50) worked out at 1.8 µM; in assay [2] (Homo sapiens, SMMC-7721, 48 h, read-out: IC50), 5.6 µM; in assay [3] (Homo sapiens, HeLa, 48 h, read-out: IC50), 3.4 µM.
